Where “and” joins values, the source holds several entries; their conditions need not be identical. Equal entries are not always repeated. Inconclusive results and toxic doses are left out.
Tested on: L1210 leukemia ip in BDF1 mice, survival T/C
Assay: NCI In Vivo Anticancer Drug Screen. Data for tumor model L1210 Leukemia (intraperitoneal) in B6D2F1 (BDF1) mice
Conditions: endpoint: mean survival time, higher = longer survival
Outline: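 In this screen, tumor-bearing mice given compound are compared to those given vehicle, and their survival values are reported as a treated-to-control quotient.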

[1] = dose: 100.0 mg/kg/injection, schedule: Q01DX009 (ip), vehicle: saline
[2] = dose: 100.0 mg/kg/injection, schedule: Q04DX003 (ip), vehicle: saline
[3] = dose: 200.0 mg/kg/injection, schedule: Q01DX009 (ip), vehicle: saline
[4] = dose: 200.0 mg/kg/injection, schedule: Q04DX003 (ip), vehicle: saline
[5] = dose: 400.0 mg/kg/injection, schedule: Q01DX009 (ip), vehicle: saline
[6] = dose: 400.0 mg/kg/injection, schedule: Q04DX003 (ip), vehicle: saline
[7] = dose: 100.0 mg/kg/injection, schedule: Q01DX009 (ip), vehicle: Klucel (hydroxypropylcellulose) (HPC)
[8] = dose: 200.0 mg/kg/injection, schedule: Q01DX009 (ip), vehicle: Klucel (hydroxypropylcellulose) (HPC)
[9] = dose: 100.0 mg/kg/injection, schedule: Q04DX003 (ip), vehicle: Klucel (hydroxypropylcellulose) (HPC)
[10] = dose: 200.0 mg/kg/injection, schedule: Q04DX003 (ip), vehicle: Klucel (hydroxypropylcellulose) (HPC)
[11] = dose: 400.0 mg/kg/injection, schedule: Q04DX003 (ip), vehicle: Klucel (hydroxypropylcellulose) (HPC)

Q: How did the T/C [1] turn out when `CCCCOCCOCCOCCO` was run?
A: 98 % of control

Q: And the T/C [2]?
A: 98 % of control

Q: What about the T/C [3] of the same compound?
A: 98 % of control

Q: What about the T/C [4] of the same compound?
A: 98 % of control

Q: And the T/C [5]?
A: 102 % of control

Q: What about the T/C [6] of the same compound?
A: 97 % of control

Q: With `COc1ccc(Cl)cc1NC(=O)Nc1ccc(Cl)cc1[N+](=O)[O-]` as the compound, how does the T/C [7] read?
A: 100 % of control

Q: What about the T/C [8] of the same compound?
A: 94 % of control

Q: And the T/C (dose: 400.0 mg/kg/injection, schedule: Q01DX009 (ip), vehicle: Klucel (hydroxypropylcellulose) (HPC))?
A: 97 % of control

Q: How did the T/C (dose: 0.8 mg/kg/injection, schedule: Q01DX Z (ip), vehicle: carboxymethylcellulose (CMC)) turn out when `CN=C(NC)Nc1ccc(NC(=O)c2ccc(C(=O)Nc3ccc(NC(=NC)NC)cc3)cc2)cc1` was run?
A: 97 % of control

Q: What about the T/C (dose: 1.62 mg/kg/injection, schedule: Q01DX Z (ip), vehicle: carboxymethylcellulose (CMC)) of the same compound?
A: 123 % of control

Q: And the T/C (dose: 1.76 mg/kg/injection, schedule: Q01DX Z (oral), vehicle: carboxymethylcellulose (CMC))?
A: 115 % of control

Q: And the T/C (dose: 2.68 mg/kg/injection, schedule: Q01DX Z (oral), vehicle: carboxymethylcellulose (CMC))?
A: 109 % of control

Q: And the T/C (dose: 3.25 mg/kg/injection, schedule: Q01DX Z (ip), vehicle: carboxymethylcellulose (CMC))?
A: 238 % of control

Q: And the T/C (dose: 4.0 mg/kg/injection, schedule: Q01DX Z (oral), vehicle: carboxymethylcellulose (CMC))?
A: 117 % of control

Q: What about the T/C (dose: 6.0 mg/kg/injection, schedule: Q01DX Z (oral), vehicle: carboxymethylcellulose (CMC)) of the same compound?
A: 108 % of control

Q: And the T/C (dose: 6.5 mg/kg/injection, schedule: Q01DX Z (ip), vehicle: carboxymethylcellulose (CMC))?
A: 173 % of control and 200 % of control

Q: What about the T/C (dose: 8.0 mg/kg/injection, schedule: Q01DX001 (ip), vehicle: carboxymethylcellulose (CMC)) of the same compound?
A: 113 % of control

Q: What about the T/C (dose: 8.0 mg/kg/injection, schedule: Q01DX001 (ip), vehicle: other) of the same compound?
A: 107 % of control

Q: What about the T/C (dose: 11.0 mg/kg/injection, schedule: Q01DX001 (ip), vehicle: carboxymethylcellulose (CMC)) of the same compound?
A: 122 % of control

Q: And the T/C (dose: 11.0 mg/kg/injection, schedule: Q01DX001 (ip), vehicle: other)?
A: 110 % of control

Q: And the T/C (dose: 25.0 mg/kg/injection, schedule: Q01DX Z (oral), vehicle: carboxymethylcellulose (CMC))?
A: 103 % of control

Q: And the T/C (dose: 26.0 mg/kg/injection, schedule: Q01DX Z (ip), vehicle: carboxymethylcellulose (CMC))?
A: 104 % of control

Q: And the T/C (dose: 39.0 mg/kg/injection, schedule: Q01DX001 (ip), vehicle: other)?
A: 155 % of control

Q: What about the T/C (dose: 40.0 mg/kg/injection, schedule: Q01DX001 (ip), vehicle: carboxymethylcellulose (CMC)) of the same compound?
A: 152 % of control

Q: And the T/C (dose: 40.0 mg/kg/injection, schedule: Q01DX001 (ip), vehicle: other)?
A: 153 % of control

Q: And the T/C (dose: 50.0 mg/kg/injection, schedule: Q01DX Z (oral), vehicle: carboxymethylcellulose (CMC))?
A: 105 % of control

Q: What about the T/C (dose: 53.0 mg/kg/injection, schedule: Q01DX Z (ip), vehicle: carboxymethylcellulose (CMC)) of the same compound?
A: 87 % of control

Q: And the T/C (dose: 60.0 mg/kg/injection, schedule: Q01DX001 (ip), vehicle: carboxymethylcellulose (CMC))?
A: 214 % of control

Q: What about the T/C (dose: 60.0 mg/kg/injection, schedule: Q01DX001 (ip), vehicle: other) of the same compound?
A: 192 % of control

Q: What about the T/C (dose: 90.0 mg/kg/injection, schedule: Q01DX001 (ip), vehicle: carboxymethylcellulose (CMC)) of the same compound?
A: 234 % of control

Q: And the T/C (dose: 90.0 mg/kg/injection, schedule: Q01DX001 (ip), vehicle: other)?
A: 236 % of control

Q: And the T/C (dose: 100.0 mg/kg/injection, schedule: Q01DX Z (oral), vehicle: carboxymethylcellulose (CMC))?
A: 103 % of control

Q: And the T/C (dose: 200.0 mg/kg/injection, schedule: Q01DX Z (oral), vehicle: carboxymethylcellulose (CMC))?
A: 102 % of control

Q: For `CCOC(=O)C[S][Sn]([Cl])([Cl])[S]CC(=O)OCC`, which T/C (dose: 100.0 mg/kg/injection, schedule: Q01DX001 (ip), vehicle: saline with Tween-80) is on record?
A: 100 % of control

Q: And the T/C (dose: 200.0 mg/kg/injection, schedule: Q01DX001 (ip), vehicle: saline with Tween-80)?
A: 92 % of control

Q: What about the T/C (dose: 400.0 mg/kg/injection, schedule: Q01DX001 (ip), vehicle: saline with Tween-80) of the same compound?
A: 87 % of control

Q: With `CC(c1ccccc1)S(=O)(=O)c1ccccc1` (centres undefined) as the compound, how does the T/C (dose: 100.0 mg/kg/injection, schedule: Q01DX001 (ip), vehicle: saline) read?
A: 102 % of control

Q: And the T/C [1]?
A: 95 % of control

Q: What about the T/C [2] of the same compound?
A: 97 % of control

Q: And the T/C (dose: 200.0 mg/kg/injection, schedule: Q01DX001 (ip), vehicle: saline)?
A: 101 % of control

Q: And the T/C [3]?
A: 101 % of control

Q: What about the T/C [4] of the same compound?
A: 95 % of control

Q: And the T/C (dose: 400.0 mg/kg/injection, schedule: Q01DX001 (ip), vehicle: saline)?
A: 95 % of control

Q: And the T/C [5]?
A: 97 % of control

Q: What about the T/C [6] of the same compound?
A: 95 % of control

Q: How did the T/C (dose: 50.0 mg/kg/injection, schedule: Q01DX001 (ip), vehicle: water) turn out when `N#CCCN(CCC#N)/N=N\c1nc[nH]c1C(N)=O` was run?
A: 104 % of control

Q: And the T/C (dose: 50.0 mg/kg/injection, schedule: Q04DX003 (ip), vehicle: water)?
A: 98 % of control

Q: And the T/C (dose: 100.0 mg/kg/injection, schedule: Q01DX001 (ip), vehicle: other)?
A: 104 % of control

Q: What about the T/C (dose: 100.0 mg/kg/injection, schedule: Q01DX001 (ip), vehicle: water) of the same compound?
A: 97 % of control

Q: What about the T/C (dose: 100.0 mg/kg/injection, schedule: Q01DX009 (ip), vehicle: other) of the same compound?
A: 101 % of control

Q: What about the T/C (dose: 100.0 mg/kg/injection, schedule: Q04DX003 (ip), vehicle: other) of the same compound?
A: 104 % of control

Q: What about the T/C (dose: 100.0 mg/kg/injection, schedule: Q04DX003 (ip), vehicle: water) of the same compound?
A: 100 % of control

Q: And the T/C (dose: 200.0 mg/kg/injection, schedule: Q01DX001 (ip), vehicle: other)?
A: 102 % of control

Q: What about the T/C (dose: 200.0 mg/kg/injection, schedule: Q01DX001 (ip), vehicle: water) of the same compound?
A: 96 % of control

Q: And the T/C (dose: 200.0 mg/kg/injection, schedule: Q01DX009 (ip), vehicle: other)?
A: 95 % of control

Q: And the T/C (dose: 200.0 mg/kg/injection, schedule: Q04DX003 (ip), vehicle: other)?
A: 105 % of control

Q: What about the T/C (dose: 200.0 mg/kg/injection, schedule: Q04DX003 (ip), vehicle: water) of the same compound?
A: 102 % of control

Q: And the T/C (dose: 400.0 mg/kg/injection, schedule: Q01DX001 (ip), vehicle: other)?
A: 102 % of control

Q: What about the T/C (dose: 400.0 mg/kg/injection, schedule: Q01DX001 (ip), vehicle: water) of the same compound?
A: 101 % of control

Q: What about the T/C (dose: 400.0 mg/kg/injection, schedule: Q01DX009 (ip), vehicle: other) of the same compound?
A: 93 % of control

Q: What about the T/C (dose: 400.0 mg/kg/injection, schedule: Q04DX003 (ip), vehicle: other) of the same compound?
A: 98 % of control

Q: And the T/C (dose: 400.0 mg/kg/injection, schedule: Q04DX003 (ip), vehicle: water)?
A: 97 % of control

Q: Which T/C (dose: 50.0 mg/kg/injection, schedule: Q01DX009 (ip), vehicle: saline) does the source give for `O=C(Nc1c[nH]c(=O)[nH]c1=O)C(F)(F)F` here?
A: 100 % of control

Q: And the T/C (dose: 50.0 mg/kg/injection, schedule: Q04DX003 (ip), vehicle: saline)?
A: 103 % of control

Q: What about the T/C [1] of the same compound?
A: 96 % of control

Q: What about the T/C [2] of the same compound?
A: 104 % of control

Q: What about the T/C [3] of the same compound?
A: 92 % of control

Q: What about the T/C [4] of the same compound?
A: 108 % of control

Q: Which T/C (dose: 50.0 mg/kg/injection, schedule: Q01DX009 (ip), vehicle: saline with Tween-80) does the source give for `CCN(CC)C(=O)/C=C\c1ccccc1` here?
A: 102 % of control

Q: And the T/C (dose: 100.0 mg/kg/injection, schedule: Q01DX009 (ip), vehicle: saline with Tween-80)?
A: 102 % of control

Q: What about the T/C (dose: 200.0 mg/kg/injection, schedule: Q01DX009 (ip), vehicle: saline with Tween-80) of the same compound?
A: 112 % of control

Q: What does the source list for `CC(C)=CCC(=O)Nc1ccc(Cl)nn1`?
A: T/C [9]: 86 % of control; T/C [10]: 91 % of control; T/C [11]: 100 % of control

Q: Which T/C (dose: 100.0 mg/kg/injection, schedule: Q01DX001 (ip), vehicle: Klucel (hydroxypropylcellulose) (HPC)) does the source give for `C=CNC(=O)C(c1ccccc1)N1CCCCC1` (centres undefined) here?
A: 102 % of control

Q: What about the T/C (dose: 200.0 mg/kg/injection, schedule: Q01DX001 (ip), vehicle: Klucel (hydroxypropylcellulose) (HPC)) of the same compound?
A: 97 % of control

Q: And the T/C (dose: 400.0 mg/kg/injection, schedule: Q01DX001 (ip), vehicle: Klucel (hydroxypropylcellulose) (HPC))?
A: 103 % of control

Q: What does the source list for `O=S(=O)(OCCOS(=O)(=O)c1ccccc1)c1ccccc1`?
A: T/C (dose: 100.0 mg/kg/injection, schedule: Q04DX002 (ip), vehicle: Klucel (hydroxypropylcellulose) (HPC)): 115 % of control; T/C (dose: 200.0 mg/kg/injection, schedule: Q04DX002 (ip), vehicle: Klucel (hydroxypropylcellulose) (HPC)): 107 % of control; T/C (dose: 400.0 mg/kg/injection, schedule: Q04DX002 (ip), vehicle: Klucel (hydroxypropylcellulose) (HPC)): 100 % of control

Q: Which results are given for `O=C(N/N=C/C=C\c1ccccc1)C(=O)N/N=C/C=C/c1ccccc1`?
A: T/C [9]: 94 % of control; T/C [10]: 89 % of control; T/C [11]: 94 % of control

Q: For `CCCC1OC(=O)C(C)O1` (centres undefined), which T/C [7] is on record?
A: 94 % of control

Q: And the T/C [9]?
A: 105 % of control

Q: And the T/C [8]?
A: 97 % of control

Q: And the T/C [10]?
A: 100 % of control

Q: What about the T/C [11] of the same compound?
A: 103 % of control

From PubChem BioAssay AID248 (DTP/NCI, 2004)
